In patent US20240270719A1, “CRYSTALLINE FORMS OF 2-(4-(4-(AMINOMETHYL)-1-OXO-1,2-DIHYDROPHTHALAZIN-6-YL)-1-METHYL-1H-PYRAZOL-5-YL)-4-CHLORO-6-CYCLOPROPOXY-3-FLUOROBENZONITRILE” (Mirati Therapeutics, Inc., priority 2023, published 2024):
Where a name gives a salt, the structure may show the parent alone.

Assays:
[1] = Relative stability of hydrate forms, competitive slurry experiments in IPA/water systems; assay type: physicochemical
From the text: The relative stability between free base Form A, Form B, and Form D was investigated by conducting competitive slurry experiments in isopropyl alcohol (IPA)/water systems at room temperature. […] Further addition of Form A to the experiments verified the result. In systems with αw≥0.37, only Form A was observed after 1 day of stirring at room temperature. Further addition of Form B and Form D to the experiment confirmed the outcome.

[2] = Intrinsic dissolution rate and drug in capsule dissolution in FaSSGF and FaSSIF; assay type: physicochemical
Protocol: The IDR rate was calculated using the slope of the linear curve divided by the surface area of tablet (0.5 cm^2). […] 0.6 mL liquid was removed with a syringe at each time point and filtered. The concentration of filtrates was analyzed by HPLC.

[3] = Excipient compatibility, total impurity content of binary mixtures by HPLC; assay type: physicochemical; conditions: 40° C./75% RH, 8 weeks; for Compatibility with excipients (total impurity content): binary mixtures, open condition; for Risk of chemical stability: with excipients
From the text: Binary mixtures of samples were created by mixing the substance and the excipients (1:10 Compound to Excipients for fillers and 1:1 for all other excipients) using a mortar and pestle and the resultant mixture was accurately weighed and transferred into sample vials. The excipients used were as follows: colloidal silicon dioxide 200, croscarmellose sodium, crosprovidone XL-10, dibasic calcium phosphate (an), hydroxypropyl cellulose, lactose monohydrate, magnesium stearate, mannitol 100SD, MCC PH102, Opadry™ 11, povidone K-30, pregelatinized starch 1500, sodium starch glycolate, and sodium stearyl fumarate. The sample vials were set down at 40° C./75% RH condition for 8 weeks in open condition before analyzing their impurity levels using HPLC.

[4] = Compressibility, tabletability, compatibility and physical stability under compaction; assay type: physicochemical
Protocol: The compressibility (i.e., porosity vs compaction pressure), tabletability (i.e., tensile strength vs compaction pressure), and compatibility (i.e. tensile strength vs porosity) of Free Base Form A of Compound 1 was measured.

[5] = Pharmacokinetics after oral capsule administration to dogs pre-treated with pentagastrin or famotidine; assay type: in vivo, male beagle dogs; conditions: 100 mg/dog, particle size normalized
Protocol: The substances were filled into Empty HPMC Capsules after correcting for potency and administered to dogs pre-treated with either pentagastrin or famotidine along with 40 mL of water. Pentagastrin enhances gastric secretions whereas famotidine neutralizes gastric sections. Therefore, pentagastrin and famotidine pre-treatments were used to simulate the impact of gastric pH on bioavailability and reduce the variability in gastric pH between dogs.
Plasma samples were collected at pre-defined intervals and analyzed for the concentration of Compound 1. The plasma concentration versus time data was analyzed by non-compartmental approaches using Win Nonlin software program to estimate PK parameters such as Cmax, Tmax, AUC0-t and AUC0-inf.

Structure (SMILES): Cn1ncc(-c2ccc3c(=O)[nH]nc(CN)c3c2)c1-c1c(F)c(Cl)cc(OC2CC2)c1C#N [Form B, 2-(4-(4-(aminomethyl)-1-oxo-1,2-dihydrophthalazin-6-yl)-1-methyl-1H-pyrazol-5-yl)-4-chloro-6-cyclopropoxy-3-fluorobenzonitrile]
- Conversion rate in competitive slurry ([1]; αw=0.13, compared with higher water activities): slightly slower than those at higher water activities
- Form conversion in competitive slurry ([1]; αw=0.13, room temperature): converted to Form A eventually

Structure (SMILES): Cn1ncc(-c2ccc3c(=O)[nH]nc(CN)c3c2)c1-c1c(F)c(Cl)cc(OC2CC2)c1C#N [HCl Form B]
- Dissolution in gastric media ([2]; 37° C., 50 rpm): common ion effect slowing dissolution
- Dissolution rate in intestinal media ([2]; intestinal media, 37° C., 50 rpm): slightly faster dissolution rate than Free Base Form A
- Compatibility with excipients (total impurity content) [3]: good compatibility with excipients
- Risk of chemical stability ([3]; open): slightly higher

Structure (SMILES): Cn1ncc(-c2ccc3c(=O)[nH]nc(CN)c3c2)c1-c1c(F)c(Cl)cc(OC2CC2)c1C#N [Free Base Form A, 2-(4-(4-(aminomethyl)-1-oxo-1,2-dihydrophthalazin-6-yl)-1-methyl-1H-pyrazol-5-yl)-4-chloro-6-cyclopropoxy-3-fluorobenzonitrile]
- Compatibility (tensile strength vs porosity) [4]: good
- Compressibility (porosity vs compaction pressure) [4]: good
- Tabletability (tensile strength vs compaction pressure) [4]: good
- Loss of crystallinity (XRPD before and after compression) ([4]; high compaction pressures): No apparent loss of crystallinity
- Dissolution in gastric media ([2]; 37° C., 50 rpm): faster dissolution in gastric media
- Supersaturation in intestinal fluid ([2]; pH shifted from gastric to intestinal after 30 minutes): able to maintain super saturation in intestinal fluid
- Exposure (plasma AUC) compared with HCl salt [5]: equivalent exposure to HCl salt
- Compatibility with excipients (total impurity content) [3]: good compatibility with excipients
- Sensitivity to individual excipients (total impurity content) ([3]; colloidal silicon dioxide and lactose monohydrate, open): more sensitive to colloidal silicon dioxide and lactose monohydrate than HCl Form B
- Risk of chemical stability ([3]; open): slightly higher
